From patent US20210388015A1, “GLUCOPYRANOSE DERIVATIVES USEFUL AS SGLT2 INHIBITORS” (Janssen Pharmaceutica NV, priority 2018, published 2021)
Structures can show the parent of a compound that is named as a salt.

Target: T1, human SGLT2 (Homo sapiens, UniProt P31639)
T1 construct: expressed in transfected cells; host or cells: CHO-K1
T1 sequence (P31639 1-672): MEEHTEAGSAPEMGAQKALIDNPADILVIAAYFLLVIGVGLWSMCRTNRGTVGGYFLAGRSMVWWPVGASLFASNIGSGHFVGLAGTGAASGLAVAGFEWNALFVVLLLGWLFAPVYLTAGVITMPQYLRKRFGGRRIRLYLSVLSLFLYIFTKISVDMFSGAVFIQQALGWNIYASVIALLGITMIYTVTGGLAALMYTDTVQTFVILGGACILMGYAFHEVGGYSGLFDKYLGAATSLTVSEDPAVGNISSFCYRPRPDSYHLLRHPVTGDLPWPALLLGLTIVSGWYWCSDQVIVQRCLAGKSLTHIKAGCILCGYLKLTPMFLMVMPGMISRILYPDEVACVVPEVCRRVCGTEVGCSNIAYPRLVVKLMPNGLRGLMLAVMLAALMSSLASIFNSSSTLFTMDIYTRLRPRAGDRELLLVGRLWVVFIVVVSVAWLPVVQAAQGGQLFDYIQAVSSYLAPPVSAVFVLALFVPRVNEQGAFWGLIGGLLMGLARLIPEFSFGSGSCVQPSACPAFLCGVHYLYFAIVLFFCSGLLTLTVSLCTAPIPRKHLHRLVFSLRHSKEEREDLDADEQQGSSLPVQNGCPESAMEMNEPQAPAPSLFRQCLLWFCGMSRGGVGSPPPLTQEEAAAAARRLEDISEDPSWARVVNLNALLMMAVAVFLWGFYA
Test: SGLT2 inhibition assay, 14C-AMG uptake in CHO-K1 cells stably expressing human SGLT2
Type: cell-based
Conditions: not given
Protocol: (§1) The cells were incubated for 24 hours. […] Plates were counted in a TopCount (Packard, Meriden, Conn.). Each experiment was repeated at least twice.
(§2) Results are reported as the %-inhibition or IC50 value.

Structure (SMILES)	IC50 [nM]
OC[C@H]1O[C@@H](c2ccc(Cl)c(Cc3ccc(OCc4ccc(COc5ccc(Cc6cc([C@@H]7O[C@H](CO)[C@@H](O)[C@H](O)[C@H]7O)ccc6Cl)cc5)nc4)cc3)c2)[C@H](O)[C@@H](O)[C@@H]1O [Compound 14, (2R,2′R,3S,3′S,4R,4′R,5R,5′R,6S,6′S)-6,6′-(((((pyridine-2,5-diylbis(methylene))bis(oxy))bis(4,1-phenylene))bis(methylene))bis(4-chloro-3,1-phenylene))bis(2-(hydroxymethyl)tetrahydro-2H-pyran-3,4,5-triol) trifluoroacetate]	4.8
OC[C@H]1O[C@H](c2ccc(Cl)c(Cc3ccc(OCc4cc(COc5ccc(Cc6cc([C@@H]7O[C@H](CO)[C@@H](O)[C@H](O)[C@H]7O)ccc6Cl)cc5)c(COc5ccc(Cc6cc([C@@H]7O[C@H](CO)[C@@H](O)[C@H](O)[C@H]7O)ccc6Cl)cc5)cc4COc4ccc(Cc5cc([C@@H]6O[C@H](CO)[C@@H](O)[C@H](O)[C@H]6O)ccc5Cl)cc4)cc3)c2)[C@H](O)[C@@H](O)[C@@H]1O [(III), (2R,2′R,2″R,3S,3′S,3″S,4R,4′R,4″R,5R,5′R,5″R,6S,6′S,6″S)-6,6′,6″-((((((5-((4-(2-chloro-5-((2R,3R,4R,5S,6R)-3,4,5-trihydroxy-6-(hydroxymethyl)tetrahydro-2H-pyran-2-yl)benzyl)phenoxy)methyl)benzene-1,2,4-triyl)tris(methylene))tris(oxy))tris(benzene-4,1-diyl))tris(methylene))tris(4-chlorobenzene-3,1-diyl))tris(2-(hydroxymethyl)tetrahydro-2H-pyran-3,4,5-triol)]	33
OC[C@H]1O[C@@H](c2ccc(Cl)c(Cc3ccc(OCCOCCOc4ccc(Cc5cc([C@@H]6O[C@H](CO)[C@@H](O)[C@H](O)[C@H]6O)ccc5Cl)cc4)cc3)c2)[C@H](O)[C@@H](O)[C@@H]1O [Compound 10, (2R,2′R,3S,3′S,4R,4′R,5R,5′R,6S,6′S)-6,6′-(((((oxybis(ethane-2,1-diyl))bis(oxy))bis(4,1-phenylene))bis(methylene))bis(4-chloro-3,1-phenylene))bis(2-(hydroxymethyl)tetrahydro-2H-pyran-3,4,5-triol)]	7.6
OC[C@H]1O[C@@H](c2ccc(Cl)c(Cc3ccc(OCCOCCOCCOc4ccc(Cc5cc([C@@H]6O[C@H](CO)[C@@H](O)[C@H](O)[C@H]6O)ccc5Cl)cc4)cc3)c2)[C@H](O)[C@@H](O)[C@@H]1O [Compound 11]	20.8
OC[C@H]1O[C@@H](c2ccc(Cl)c(Cc3ccc(OCc4ccc(COc5ccc(Cc6cc([C@@H]7O[C@H](CO)[C@@H](O)[C@H](O)[C@H]7O)ccc6Cl)cc5)cc4)cc3)c2)[C@H](O)[C@@H](O)[C@@H]1O [Compound 13]	32
C[N+]1(Cc2ccc(COc3ccc(Cc4cc([C@@H]5O[C@H](CO)[C@@H](O)[C@H](O)[C@H]5O)ccc4Cl)cc3)cc2)CCC(CCC2CC[N+](C)(Cc3ccc(COc4ccc(Cc5cc([C@@H]6O[C@H](CO)[C@@H](O)[C@H](O)[C@H]6O)ccc5Cl)cc4)cc3)CC2)CC1 (stereo partly drawn) [Compound 17, 4,4′-(ethane-1,2-diyl)bis(1-(4-((4-(2-chloro-5-((2S,3R,4R,5S,6R)-3,4,5-trihydroxy-6-(hydroxymethyl)tetrahydro-2H-pyran-2-yl)benzyl)phenoxy)methyl)benzyl)-1-methylpiperidin-1-ium) trifluoroacetate]	5
C[N+](C)(CCOc1ccc(Cc2cc([C@@H]3O[C@H](CO)[C@@H](O)[C@H](O)[C@H]3O)ccc2Cl)cc1)CCOc1ccc(Cc2cc([C@@H]3O[C@H](CO)[C@@H](O)[C@H](O)[C@H]3O)ccc2Cl)cc1 [Compound 15, trifluoroacetate]	121
O=C(O)C(CCC(Oc1ccc(Cc2cc([C@@H]3O[C@H](CO)[C@@H](O)[C@H](O)[C@H]3O)ccc2Cl)cc1)C(=O)O)Oc1ccc(Cc2cc([C@@H]3O[C@H](CO)[C@@H](O)[C@H](O)[C@H]3O)ccc2Cl)cc1 (mixture of isomers) [Compound 18]	377
C[N+]1(Cc2ccc(COc3ccc(Cc4cc([C@@H]5O[C@H](CO)[C@@H](O)[C@H](O)[C@H]5O)ccc4Cl)cc3)cc2)CCC(C2CC[N+](C)(Cc3ccc(COc4ccc(Cc5cc([C@@H]6O[C@H](CO)[C@@H](O)[C@H](O)[C@H]6O)ccc5Cl)cc4)cc3)CC2)CC1 (stereo partly drawn) [Compound 16, 1,1′-bis(4-((4-(2-chloro-5-((2S,3R,4R,5S,6R)-3,4,5-trihydroxy-6-(hydroxymethyl)tetrahydro-2H-pyran-2-yl)benzyl)phenoxy)methyl)benzyl)-1,1′-dimethyl-[4,4′-bipiperidine]-1,1′-diium trifluoroacetate]	4
OC[C@H]1O[C@@H](c2ccc(Cl)c(Cc3ccc(OCCOCCOCCOCCOc4ccc(Cc5cc([C@@H]6O[C@H](CO)[C@@H](O)[C@H](O)[C@H]6O)ccc5Cl)cc4)cc3)c2)[C@H](O)[C@@H](O)[C@@H]1O [Compound 12]	9.6
C[N+](C)(CCCc1ccc(-c2ccc(Cc3cc([C@@H]4O[C@H](CO)[C@@H](O)[C@H](O)[C@H]4O)ccc3Cl)s2)cc1)CCOc1ccc(-c2ccc(Cc3cc([C@@H]4O[C@H](CO)[C@@H](O)[C@H](O)[C@H]4O)ccc3Cl)s2)cc1 [Compound 19, N-(2-(4-(5-(2-chloro-5-((2S,3R,4R,5S,6R)-3,4,5-trihydroxy-6-(hydroxymethyl)tetrahydro-2H-pyran-2-yl)benzyl)thiophen-2-yl)phenoxy)ethyl)-3-(4-(5-(2-chloro-5-((2S,3R,4R,5S,6R)-3,4,5-trihydroxy-6-(hydroxymethyl)tetrahydro-2H-pyran-2-yl)benzyl)thiophen-2-yl)phenyl)-N,N-dimethylpropan-1-aminium trifluoroacetate]	24

Target: T2, human SGLT1 (Homo sapiens, UniProt P13866)
T2 construct: expressed in transfected cells; host or cells: CHO-K1
T2 sequence (P13866 1-664): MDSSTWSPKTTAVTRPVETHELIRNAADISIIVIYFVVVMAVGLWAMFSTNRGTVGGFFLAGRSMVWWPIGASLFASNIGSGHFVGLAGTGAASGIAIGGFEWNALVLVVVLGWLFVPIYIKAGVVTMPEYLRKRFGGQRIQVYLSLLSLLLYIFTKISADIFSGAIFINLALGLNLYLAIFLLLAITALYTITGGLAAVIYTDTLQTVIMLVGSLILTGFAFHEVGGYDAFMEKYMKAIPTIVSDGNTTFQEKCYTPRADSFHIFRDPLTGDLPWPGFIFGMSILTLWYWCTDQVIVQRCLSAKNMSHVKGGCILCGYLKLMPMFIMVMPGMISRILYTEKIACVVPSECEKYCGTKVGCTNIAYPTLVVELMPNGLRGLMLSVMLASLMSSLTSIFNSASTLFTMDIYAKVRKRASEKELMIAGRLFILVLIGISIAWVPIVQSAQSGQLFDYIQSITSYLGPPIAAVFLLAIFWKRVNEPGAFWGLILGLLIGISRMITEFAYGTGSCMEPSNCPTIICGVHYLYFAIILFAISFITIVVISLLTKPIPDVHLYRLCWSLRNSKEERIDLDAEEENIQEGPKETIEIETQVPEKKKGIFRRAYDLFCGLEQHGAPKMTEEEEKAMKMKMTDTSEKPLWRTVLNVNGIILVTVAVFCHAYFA
Test: SGLT1 inhibition assay, 14C-AMG uptake in CHO-K1 cells stably expressing human SGLT1
Type: cell-based
Conditions: CHO-K1, CHO-K1 cells, 1 μM test compound; read-out: CHO-K1 Cells SGLT1 % Inh @1 μM
Protocol: as §1, §2

Structure (SMILES)	inhibition at 1 µM [%]
C[N+]1(CCOCCOc2ccc(Cc3cc([C@@H]4O[C@H](CO)[C@@H](O)[C@H](O)[C@H]4O)ccc3Cl)cc2)CCCC1 [Compound 7]	17.5
COCCOCCOCCOCCOc1ccc(Cc2cc([C@@H]3O[C@H](CO)[C@@H](O)[C@H](O)[C@H]3O)ccc2Cl)cc1 [Compound 1]	14.5
O=S(=O)(O)CCCOc1ccc(Cc2cc([C@@H]3O[C@H](CO)[C@@H](O)[C@H](O)[C@H]3O)ccc2Cl)cc1 [Compound 2, 3-(4-(2-chloro-5-((2S,3R,4R,5S,6R)-3,4,5-trihydroxy-6-(hydroxymethyl)tetrahydro-2H-pyran-2-yl)benzyl)phenoxy)propane-1-sulfonic acid]	20
C[N+]1(CCCCCOc2ccc(Cc3cc([C@@H]4O[C@H](CO)[C@@H](O)[C@H](O)[C@H]4O)ccc3Cl)cc2)CCCC1 [Compound 6, 1-(5-(4-(2-chloro-5-((2S,3R,4R,5S,6R)-3,4,5-trihydroxy-6-(hydroxymethyl)tetrahydro-2H-pyran-2-yl)benzyl)phenoxy)pentyl)-1-methylpyrrolidin-1-ium trifluoroacetate]	43.1

Same assay, conditions: CHO-K1, read-out: CHO-K1 Cells SGLT1 % Inh @1 μM

Structure (SMILES)	inhibition at 1 µM [%]
OC[C@H]1O[C@@H](c2ccc(Cl)c(Cc3ccc(OCc4ccc(COc5ccc(Cc6cc([C@@H]7O[C@H](CO)[C@@H](O)[C@H](O)[C@H]7O)ccc6Cl)cc5)nc4)cc3)c2)[C@H](O)[C@@H](O)[C@@H]1O [Compound 14, (2R,2′R,3S,3′S,4R,4′R,5R,5′R,6S,6′S)-6,6′-(((((pyridine-2,5-diylbis(methylene))bis(oxy))bis(4,1-phenylene))bis(methylene))bis(4-chloro-3,1-phenylene))bis(2-(hydroxymethyl)tetrahydro-2H-pyran-3,4,5-triol) trifluoroacetate]	19

Same assay, conditions: CHO-K1 cells; IC50 printed in the % Inh column

Structure (SMILES)	IC50 [nM]
OC[C@H]1O[C@@H](c2ccc(Cl)c(Cc3ccc(OCCOCCOc4ccc(Cc5cc([C@@H]6O[C@H](CO)[C@@H](O)[C@H](O)[C@H]6O)ccc5Cl)cc4)cc3)c2)[C@H](O)[C@@H](O)[C@@H]1O [Compound 10, (2R,2′R,3S,3′S,4R,4′R,5R,5′R,6S,6′S)-6,6′-(((((oxybis(ethane-2,1-diyl))bis(oxy))bis(4,1-phenylene))bis(methylene))bis(4-chloro-3,1-phenylene))bis(2-(hydroxymethyl)tetrahydro-2H-pyran-3,4,5-triol)]	1490
